Source: patent US20220304356A1, “FUNCTIONAL FOOD COMPOSITIONS AND COSMETIC COMPOSITIONS COMPRISING GALACTO-OLIGOSACCHARIDES, OR GALACTOOLIGOSACCHARIDES AND COLLAGEN TRIPEPTIDE FOR IMPROVING IMMUNE FUNCTIONS AND SKIN CONDITION” (NEO CREMAR CO., LTD., priority 2020, published 2022)

Tests used:
Type in all cases: in vivo, SKH-1 hairless mice
[1] = system: dorsal skin of the mice, irradiated with ultraviolet light; test: Skin water-holding capacity (Multi Probe Adapter MPA 6); conditions: UVB-irradiated mice, oral 8 weeks, compared with CON
Experimental: (§1) A total of seven experimental groups (six animals per group) were defined as a normal control group (normal, not UVB-induced), a negative control group (control, UVB-irradiated), a GOS alone treatment group (GOS 200 mg/kg, UVB-irradiated) and a CTP alone treatment group (CTP 200 mg/kg, UVB-irradiated), a GOS/CTP 1:3 mixed treatment group (GOS/CTP 50:150 mg/kg, UVB-irradiated), a GOS/CTP 1:1 mixed treatment group (100:100 mg/kg, UVB-irradiated), and a GOS/CTP 3:1 mixed treatment group (GOS/CTP 150:50 mg/kg, UVB-irradiated).
(§2) The mice were acclimated for one week, and then photo-aging was induced in the mice of six groups except for the normal control group (NOR) by exposing their dorsal skin to ultraviolet light three times a week for 8 weeks through the ultraviolet irradiation device (BLX-E254, Vilber Lourmat, France) equipped with the UVB-ultraviolet lamp (T-8M; Vilber Lourmat, France) (Hong et al., 2015). As for the dosage of ultraviolet irradiation, the irradiation dosage inside the ultraviolet irradiation device was measured by the UV light meter (UV-340; Lutron, Taiwan) and adjusted, and then the UVB dosage was controlled as shown in Table 1. […]

MMP2 = test: qRT-PCR of skin tissue, MMP 2; conditions: compared with CON
Experimental: (§3) In order to investigate the effects of the compositions of the present disclosure on the expression of skin condition-related genes, the present inventors measured the expression levels of collagen type I, matrix metalloproteinase (MMP) 2/3/9, TIMP1/2, hyaluronidase (HYAL), and NF-K in comparison with GAPDH.
(§4) Specifically, about 100 mg of the skin tissue was collected from each mouse of the experimental groups administered the compositions of the present disclosure, and total RNA was isolated using TRIzol reagent. To the isolated RNA was added 50 μM Oligo-(dT) primer and 10 mM dNTP mix, followed by reaction at […] for 5 minutes, and then 5×RT Buffer, 0.1 M DTT, RNaseOUT, SuperScript III, and 25 mM MgCl2 were added with mixing, followed by reaction under conditions of 50° C. for 50 minutes and 85° C. for 5 minutes. RNase H was added and incubated at 37° C. for 20 minutes, thereby synthesizing cDNA from mRNA. To perform POR, 1 μL of the synthesized cDNA was mixed with primers, SYBR green gene expression master mix, and DEPO water, followed by qPCR. The expression level of each target gene was indicated as a relative expression level compared with the NOR group.

intestinal microflora = test: Intestinal microflora change analysis (16S rRNA sequencing of caecum); conditions: photo-aging model, oral
Text: The caecum of the mouse was harvested, and subjected to extraction using the i-genome clinic DNA extraction kit. The 16S rRNA library was constructed through the protocol of Illumina 16S V3˜V4 Amplicon (Illumina, San Diego, Calif., USA). The 16S rRNA V3-V4 region was amplified by the first polymerase chain reaction (PCR-1) using the DNA extract, and the PCR product was purified using Agencourt AMPure XP Beads (Beckman Coulter, Inc., Pasadena, Calif., USA), and the washed amplicons were quantified. The PCR product was used as a template for the second PCR (PCR-II) with Illumina dual index adapter sequence, and the final amplicon library was sequenced using the v3, 600 cycle kit and 301 base paired-end chemistry. Sequence data analysis was performed through QIIME 2 software, and then quality filtering was performed. […] The operational taxonomic units (OTUs) of the sequence were analyzed, and the alpha diversity analysis included the Richness, Shannon Index, and Abundance-based Coverage Estimator (ACE) indexes. […] The Kruskal-Wallis test was performed to analyze the diversity of the intestinal microflora and the difference in relative abundance, and the difference in beta diversity was analyzed by the ANOSIM and permutational multivariate analysis of variance (PERMANOVA) tests.

[2] = system: dorsal skin of the mice, irradiated with ultraviolet light; test: Erythema value; conditions: UVB-irradiated mice, oral 8 weeks, compared with CON; no significant difference
Experimental: as §1, §2

TIMP1 = test: qRT-PCR of skin tissue, TIMP 1; conditions: compared with CON
Experimental: as §3, §4

[3] = Short-chain fatty acid (SCFA) analysis of caecum using GC
Experimental: The caecum of the mouse was harvested and extracted with methanol, and then the extract was analyzed for SCFA by using gas chromatography (Agilent Technologies, CA, USA) equipped with GC column (DB-FFAP 123-3253, 50 m×0.32 mm×[…]). The column temperature was set to be maintained at 100° C. for 1 minute, raised to 180° C. at a rate of 8° C./min, then raised to 200° C. at a rate of 20° C./min, and then stagnant at 200° C. for 5 min. The SCFA contents in the caecum were analyzed through the standard materials of acetic acid, propionic acid, and butyric acid.

Q: What does the source list for collagen tripeptide [CTP]?
A: change in water-holding capacity before and after ultraviolet irradiation [1]: significantly increased; gene expression level of MMP 2 (MMP2): significantly decreased; Firmicutes/Bacteroidetes ratio (intestinal microflora): tended to increase; change in erythema value before and after ultraviolet irradiation [2]: tended to decrease; gene expression level of TIMP 1 (TIMP1): significantly increased; content of butyric acid [3]: significantly increased; content of valeric acid ([3]; compared with CON): significant increase; total short-chain fatty acid content ([3]; compared with CON): tendency of increase; content of propionic acid ([3]; compared with CON, no significant difference): tended to increase
